# Values of other authors in publication PMC4273976 (ACS chemical biology, 2014).
# Tested on: EphA4-dependent growth cone collapse
# Settings: 5 μM peptide, nasal retinal explants; cited from earlier work
sequence,measurement,value
KYLPYWPVLSSL,inhibition of ephrin-A5-induced growth cone collapse,blocked
